According to patent publication US8541344B2, “Compositions with cyclopropenes and metal-complexing agents” (Rohm and Haas Company, priority 2004, dated 2013):
Where a name gives a salt, the structure may show the parent alone. Blank lines part the entries; values can stand above or below the compound they belong to.

How the values were obtained:
[1] = Cyclopropene release measurement (headspace gas chromatography); type: physicochemical; conditions: for effect on % release of 1-MCP (in words): compared to the 13% with no agent
Experimental: Cyclopropene Headspace Measurement Method:
A composition containing water and cyclopropene was sealed in a bottle equipped with a septum in a manner that leaves a portion of the volume of the bottle filled with gas; a portion of the headspace was analyzed for cyclopropene at 1 hour after injection. The analysis method was gas chromatography using the following parameters:
Cyclopropene Release Measurement
The release of cyclopropene from a mixture of water and cyclopropene was measured as follows.
From the measure concentration of cyclopropene in the headspace and the amount of cyclopropene added to the bottle, the fraction of the total amount of cyclopropene in the bottle that resides in the headspace can be calculated and reported as a percentage based on the amount of cyclopropene added to the bottle.

[2] = tested on: Tomatoes (Rutgers 39 Variety); experiment: Tomato epinasty test; type: in vivo; conditions: for % Control of Epinasty: foliar spray, 1-MCP 140 ppb, ethylene 14 ppm 12-14 hours
Experimental: Tomato epinasty tests were performed as follows:
Tomatoes (Rutgers 39 Variety Harris Seeds No 885 Lot 37729-A3) were grown in 2½″ square pots filled with a commercial potting mix. Two seeds were place in each pot. Plants that had expanded first true leaves and were between 3 and 5 inches high were used for the tomato epinasty test.
To conduct the assay, the plants were sprayed to run off with the test 1-MCP foliar spray and allowed to dry for 4 hours in sunlight These operations were performed in a ventilated area away from the plants growing in the greenhouse so there would not be any unintended treatment to growing plants destined for later experiments.
The 1-MCP treated plants and both treated and untreated controls were placed into an SLX controlled-atmosphere shipping box and sealed. To the box, ethylene was injected through a septum, which gave a concentration of 14 ppm. The plants were held sealed for 12-14 hours in the dark with ethylene in the atmosphere. At the end of ethylene treatment, the box was opened and scored for epinasty. Scoring for epinasty was accomplished by using the following scoring system for each pot. • 1. 0% no epinasty (100% control) • 2. 20% A couple leaves show some drooping (80% control) • 3. 50% Plants show 50% of full response. Not all leaves need to show effect. (50% control) • 4. 80% Almost all leaves drooping and some show underside of leaf exposed on top. (20% control) • 5. 100% Leaves completely drooping and the underside of the leaf exposed from above. (0% control)
The score of each pot is recorded. The average of 6 or 8 pots is averaged to get a score. The percentage improvement is calculated by interpolating the percentage improvement from the control water (i.e., no additives) 1-MCP treatment.
Tomato epinasty tests were conducted using a formulation that included water; a 1-MCP α-CD complex that contained 0.14% 1-MCP by weight, based on the weight of the 1-MCP α-CD complex; and sodium salt of EDTA. The amount of 1-MCP α-CD complex was chosen so that the formulation had 140 ppb of 1-MCP. Also included in the formulation were an anionic surfactant (0.1% by weight based on the weight of the formulation), isopropanol (1% by weight based on the weight of the formulation), and a spray oil (1% by weight based on the weight of the formulation).

[3] = deionized water #1, 5 ppm copper ion, metal-complexing agent 1 mM
[4] = deionized water #1, 5 ppm copper ion, metal-complexing agent 5 mM
[5] = deionized water #1, 5 ppm copper ion, metal-complexing agent 10 mM

SMILES: CC1=CC1 [1-MCP, 1-methylcyclopropene, reference compound]
% Release of 1-MCP ([1]; 1-MCP α-CD complex in deionized #1 water, no metal-complexing agent): 100% | % Release of 1-MCP ([1]; 1-MCP α-CD complex in deionized #2 water, no metal-complexing agent): 60% | % Release of 1-MCP ([1]; 1-MCP α-CD complex in filtered (MilliQ) water, no metal-complexing agent): 100% | % Release of 1-MCP ([1]; 1-MCP α-CD complex in tap #1 water, no metal-complexing agent, headspace at 1 hour): 60% | % Release of 1-MCP ([1]; 1-MCP α-CD complex in tap #2 water, no metal-complexing agent, headspace at 1 hour): 13% | activity of 1-MCP (in words) ([1]; copper ions without sodium salt of EDTA): reduction in activity | activity of 1-MCP (in words) ([1]; copper ions, sodium salt of EDTA added 2 hours after the 1-MCP α-CD complex): fails to maintain the activity | activity of 1-MCP (in words) ([1]; copper ions, sodium salt of EDTA added to the water before the 1-MCP α-CD complex): maintains the full activity | % Release of 1-MCP ([1]; deionized water #1, copper ions 0 ppm, sodium salt of EDTA 0 mM): 100% | % Release of 1-MCP ([1]; deionized water #1, copper ions 1 ppm, sodium salt of EDTA 0 mM): 54% | % Release of 1-MCP ([1]; deionized water #1, copper ions 5 ppm, sodium salt of EDTA 0 mM): 36% | % Release of 1-MCP ([1]; deionized water #1, copper ions 5 ppm, sodium salt of EDTA 11 mM added 2 hours after 1-MCP α-CD complex, headspace 1 hour later): 37% | % Release of 1-MCP ([1]; deionized water #1, copper ions 5 ppm, sodium salt of EDTA 11 mM added before the 1-MCP α-CD complex): 100% | % Release of 1-MCP ([1]; deionized water #1, copper ions 10 ppm (cupric sulfate), sodium salt of EDTA 0 mM): 10% | control of epinasty (in words) ([2]; deionized water with 1-MCP): does control epinasty | % Control of Epinasty ([2]; de-ionized water, EDTA 0 mM): 100% | % Control of Epinasty ([2]; well water, EDTA 0 mM): 0% | % Control of Epinasty ([2]; well water, EDTA 0.003 mM): 80% | control of epinasty (in words) ([2]; well water with 1-MCP): does not control epinasty | control of epinasty (in words) ([2]; well water with 1-MCP and sodium salt of EDTA): does control epinasty

% Release of 1-MCP ([1]; tap #2 water, citric acid 1 milliMolar added first): 63% | % Release of 1-MCP ([1]; tap #2 water, citric acid 10 milliMolar added first): 100% | % Release of 1-MCP ([1]; tap #2 water, citric acid 100 milliMolar added first): 92% | effect on % release of 1-MCP (in words) ([1]; tap #2 water): improves the % release dramatically
SMILES: O=C(O)CC(O)(CC(=O)O)C(=O)O [Citric Acid, citric acid]

effect on % release of 1-MCP (in words) ([1]; tap #2 water): improves the % release dramatically | % Release of 1-MCP ([1]; tap #2 water, sodium salt of EDTA 0.00001 milliMolar): 87% | % Release of 1-MCP ([1]; tap #2 water, sodium salt of EDTA 0.0001 milliMolar): 100% | % Release of 1-MCP ([1]; tap #2 water, sodium salt of EDTA 0.001 milliMolar): 100% | % Release of 1-MCP ([1]; tap #2 water, sodium salt of EDTA 0.01 milliMolar): 100% | % Release of 1-MCP ([1]; tap #2 water, sodium salt of EDTA 0.1 milliMolar): 100% | % Release of 1-MCP ([1]; tap #2 water, sodium salt of EDTA 1 milliMolar): 100% | % Release of 1-MCP ([1]; tap #2 water, sodium salt of EDTA 10 milliMolar): 100%
SMILES: O=C(O)CN(CCN(CC(=O)O)CC(=O)O)CC(=O)O [Sodium Salt of EDTA, ethylenediaminetetraacetic acid]

% Release of 1-MCP [1, 3]: 99% | % Release of 1-MCP [1, 4]: 85% | % Release of 1-MCP [1, 5]: 92%
SMILES: O=C(O)C(O)C(O)C(=O)O (centres unmarked) [Tartaric acid, tartaric acid]

% Release of 1-MCP [1, 3]: 97% | % Release of 1-MCP [1, 4]: 100% | % Release of 1-MCP [1, 5]: 95%
SMILES: O=C(O)CN(CC(=O)O)CC(=O)O [nitrilotriacetic acid]

SMILES: O=C([O-])[O-].[Na+].[Na+] [sodium carbonate]
% Release of 1-MCP [1, 3]: 61% | % Release of 1-MCP [1, 4]: 68% | % Release of 1-MCP [1, 5]: 71%

SMILES: O=P([O-])([O-])OP(=O)([O-])[O-].[Na+].[Na+].[Na+].[Na+] [tetrasodium pyrophosphate]
% Release of 1-MCP [1, 3]: 42% | % Release of 1-MCP [1, 4]: 39% | % Release of 1-MCP [1, 5]: 54%
